Results on 30 compounds are retold here after patent publication US8389557B2, “Triazole derivatives useful as Axl inhibitors” (Rigel Pharmaceuticals, Inc., priority 2005, dated 2013).

This experiment deals with T1, Axl (Homo sapiens, UniProt P30530).
T1 construct: endogenous in cells; host or cells: HeLa cells
T1 sequence (P30530 26-894): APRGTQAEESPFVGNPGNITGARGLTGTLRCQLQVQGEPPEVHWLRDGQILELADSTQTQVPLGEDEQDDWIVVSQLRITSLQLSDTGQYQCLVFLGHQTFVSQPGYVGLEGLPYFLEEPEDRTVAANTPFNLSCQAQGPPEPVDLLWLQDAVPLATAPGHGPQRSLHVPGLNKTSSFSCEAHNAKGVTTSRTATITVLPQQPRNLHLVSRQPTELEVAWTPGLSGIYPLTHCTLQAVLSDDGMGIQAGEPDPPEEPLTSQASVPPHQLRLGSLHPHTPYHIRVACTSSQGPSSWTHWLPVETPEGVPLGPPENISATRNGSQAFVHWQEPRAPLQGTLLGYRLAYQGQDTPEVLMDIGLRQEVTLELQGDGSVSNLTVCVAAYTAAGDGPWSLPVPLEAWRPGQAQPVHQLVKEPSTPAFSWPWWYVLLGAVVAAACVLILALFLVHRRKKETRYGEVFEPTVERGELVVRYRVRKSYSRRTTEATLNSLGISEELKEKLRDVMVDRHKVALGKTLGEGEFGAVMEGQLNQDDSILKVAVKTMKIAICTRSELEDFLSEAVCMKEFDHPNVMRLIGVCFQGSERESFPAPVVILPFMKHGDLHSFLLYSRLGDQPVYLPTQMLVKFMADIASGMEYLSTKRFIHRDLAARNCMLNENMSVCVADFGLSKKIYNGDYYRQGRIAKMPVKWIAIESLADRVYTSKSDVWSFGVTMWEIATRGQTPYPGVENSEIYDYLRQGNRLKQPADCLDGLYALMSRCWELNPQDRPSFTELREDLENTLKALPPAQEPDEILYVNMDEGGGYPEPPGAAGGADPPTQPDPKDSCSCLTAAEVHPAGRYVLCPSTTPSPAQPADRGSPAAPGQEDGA
The experiment is described as follows: Phospho-Akt in-cell Western assay (inhibition of Axl activity). Format: cell-based. The method in brief: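 HeLa cells on poly-L-lysine, starved 24 h in 0.5% FCS DMEM with Axl/Fc 500 ng/mL, pre-treated with compound 1 h at 37° C. Axl stimulated 5 min by anti-Axl/anti-mouse antibody cross-linking. Fixed cells probed with anti-phospho-Akt and HRP secondary, chemiluminescence read.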

Where [1] appears, read: inhibition of Axl activity, phospho-Akt in-cell Western assay, Table 1.
[2] abbreviates: Table 3, Hela cells, Axl antibody cross-linking stimulation, phospho-Akt chemiluminescence.
Where [3] appears, read: Table 7, Hela cells, Axl antibody cross-linking stimulation, phospho-Akt chemiluminescence.
Where [4] appears, read: inhibition of Axl activity, Table 1.
[5] abbreviates: Table 5, Hela cells, Axl antibody cross-linking stimulation, phospho-Akt chemiluminescence.
Where [6] appears, read: Table 2, Hela cells, Axl antibody cross-linking stimulation, phospho-Akt chemiluminescence.

`COc1cccc(C(=O)n2nc(Nc3ccc(OCCN4CCCC4)cc3)nc2N)c1` [compound #14, 5-Amino-1-(3-methoxyphenyl)carbonyl-3-[4-[2-(pyrrolidin-1-yl)ethoxy]phenylamino]-1H-1,2,4-triazole] came in with a half-inhibitory concentration (IC50) under setting [1] of under 1 µM. Regarding `Nc1nc(Nc2ccc(OCCN3CCCC3)cc2)nn1C(=O)C1CC2C=CC1C2` (stereo not drawn) [compound 196, 5-amino-1-[2-(bicyclo[2.2.1]hept-5-ene)carbonyl]-3-[4-[2-(pyrrolidin-1-yl)ethoxy]phenylamino]-1H-1,2,4-triazole], the 50% inhibitory concentration (IC50) under setting [2] is over 20 µM. The compound `CN(C)c1ccc(NC(=O)n2nc(Nc3ccc(OCCN4CCCCC4)cc3)nc2N)cc1` [compound 44, 5-amino-N-(4-(dimethylamino)phenyl)-3-[4-[2-(piperidin-1-yl)ethoxy]phenylamino]-1H-1,2,4-triazole-1-carboxamide] had a half-maximal inhibitory concentration (IC50) under setting [3] of 1 to 10 µM.

For the compound `Cc1ccc(C(=O)n2nc(Nc3ccccc3)nc2N)cc1` [compound 137, 5-amino-1-(4-(methyl)phenyl)carbonyl-3-phenylamino-1H-1,2,4-triazole], under setting [4], the half-maximal inhibitory concentration (IC50) is over 20 µM. For the compound `Nc1nc(Nc2ccc(OCCN3CCCC3)cc2)nn1C(=O)Nc1ccc2c(c1)OCO2` [compound 36, 5-amino-N-(1,3-benzodioxol-5-yl)-3-[4-[2-(pyrrolidin-1-yl)ethoxy]phenylamino]-1H-1,2,4-triazole-1-carboxamide], under setting [3], the half-inhibitory concentration (IC50) was 1 to 10 µM.

Take `Cc1cccc(C(=O)n2nc(Nc3ccc4c(c3)NC(=O)C(F)(F)O4)nc2N)c1` [compound 64, 5-amino-3-(2,2-difluoro-2H-benzo[b][1,4]oxazin-3(4H)-on-6-yl)amino-1-(3-(methyl)phenyl)carbonyl-1H-1,2,4-triazole]: the IC50 under setting [5] was over 20 µM. In the case of `Nc1nc(Nc2ccc(OCCN3CCCC3)cc2)nn1C(=O)c1ccc2ncsc2c1` [compound 271, 5-amino-1-(benzo[d]thiazol-6-yl)carbonyl-3-[4-[2-(pyrrolidin-1-yl)ethoxy]phenylamino]-1H-1,2,4-triazole], the IC50 under setting [2] lay within 1 to 10 µM. As for `CC(=O)Oc1cccc(C(=O)n2nc(Nc3ccc4c(c3)OCCO4)nc2N)c1` [compound 110, 1-(3-(Acetoxy)phenyl)carbonyl-5-amino-3-(1,4-benzodioxan-6-yl)amino-1H-1,2,4-triazole], the IC50 under setting [4] fell in the range of 1 to 10 µM.

Under setting [1], `CC(C)Oc1ccc(C(=O)n2nc(Nc3ccc(OCCN4CCCC4=O)cc3)nc2N)cc1` [compound 337, 5-amino-1-(4-(iso-propoxy)phenyl)carbonyl-3-[4-[2-(pyrrolidin-2-on-1-yl)ethoxy]phenylamino]-1H-1,2,4-triazole] gave a concentration for half-maximal inhibition (IC50) of under 1 µM. For `Nc1nc(Nc2ccc(OCCN3CCCC3)c(F)c2)nn1C(=O)c1ccc2cc[nH]c2c1` [compound 309, 5-amino-1-(1H-indol-6-yl)carbonyl-3-[3-fluoro-4-[2-(pyrrolidin-1-yl)ethoxy]phenylamino]-1H-1,2,4-triazole], under setting [2], the IC50 was under 1 µM.

`Nc1nc(Nc2ccc3c(c2)OCCO3)nn1C(=O)c1cccc(OC2CCCC2)c1` [compound 127, 5-amino-1-(3-(cyclopentoxy)phenyl)carbonyl-3-(1,4-benzodioxan-6-yl)amino-1H-1,2,4-triazole] returned a concentration for half-maximal inhibition (IC50) under setting [4] of 1 to 10 µM. As to `CC(C)Oc1ccc(C(=O)n2nc(Nc3ccccc3)nc2N)cc1` [compound 333, 5-amino-1-(4-(iso-propoxy)phenyl)carbonyl-3-(phenylamino)-1H-1,2,4-triazole], under setting [1], the IC50 lay in the range of 1 to 10 µM. Still for that read-out and setting: the same measure for `Nc1nc(Nc2ccc(OCCN3CCCC3)cc2)nn1C(=O)c1ccc(-c2cccs2)cc1` [compound 311, 5-amino-1-(4-(thien-2-yl)phenyl)carbonyl-3-[4-[2-(pyrrolidin-1-yl)ethoxy]phenylamino]-1H-1,2,4-triazole]: under 1 µM; for `CC(C)(C)Oc1ccc(C(=O)n2nc(Nc3ccc(OCCN4CCOCC4)cc3)nc2N)cc1` [compound 267, 5-amino-1-(4-(tert-butoxy)phenyl)carbonyl-3-[4-[2-(morpholin-4-yl)ethoxy]phenylamino]-1H-1,2,4-triazole]: under 1 µM. Regarding `Nc1nc(Nc2ccc(OCCN3CCCC3)cc2)nn1C(=O)c1ccncc1` [compound 204, 5-amino-1-(pyridin-4-yl)carbonyl-3-[4-[2-(pyrrolidin-1-yl)ethoxy]phenylamino]-1H-1,2,4-triazole], the IC50 under setting [2] is over 20 µM. In the case of `NC(=O)C1C2C=CC(C2)C1Nc1nc(N)n(C(=O)c2ccc3cc[nH]c3c2)n1` (stereo not drawn) [compound 356, 5-amino-1-(1H-indol-6-yl)carbonyl-3-[(5-(aminocarbonyl)bicyclo[2.2.1]hept-2-en-6-yl)amino]-1H-1,2,4-triazole], the IC50 (Table 9, Hela cells, Axl antibody cross-linking stimulation, phospho-Akt chemiluminescence) is over 20 µM. Regarding `CCOc1ccc(C(=O)n2nc(Nc3ccc4c(c3)OCCO4)nc2N)cc1` [compound 114], the half-maximal inhibitory concentration (IC50) under setting [4] lay within 1 to 10 µM.

`CSc1ccc(C(=O)n2nc(N)nc2Nc2ccc3c(c2)OCCO3)cc1` [compound 238, 3-amino-5-(1,4-benzodioxan-6-yl)amino-1-(4-thiomethylphenyl)carbonyl-1H-1,2,4-triazole]: the IC50 under setting [6] was over 20 µM. With `Nc1nc(Nc2ccc(OCCN3CCCC3=O)cc2)nn1C(=O)c1cccc(N2CCOCC2)c1` [compound 340, 5-amino-1-(3-(morpholin-4-yl)phenyl)carbonyl-3-[4-[2-(pyrrolidin-2-on-1-yl)ethoxy]phenylamino]-1H-1,2,4-triazole], the IC50 under setting [1] was in the range of 1 to 10 µM.

In turn, `CC(C)c1ccc(C(=O)n2nc(Nc3ccc(N4CCOCC4)cc3)nc2N)cc1` [compound 52, 5-amino-1-(4-(iso-propyl)phenyl)carbonyl-3-(4-(morpholin-4-yl)phenylamino]-1H-1,2,4-triazole] registered a half-maximal inhibitory concentration (IC50) under setting [4] of under 1 µM. On the same count and under the same terms, the value for `N#Cc1ccc(C(=O)n2nc(Nc3ccc4c(c3)OCCO4)nc2N)cc1` [compound 245, 5-amino-1-(4-cyanophenyl)carbonyl-3-(1,4-benzodioxan-6-yl)amino-1H-1,2,4-triazole] was over 20 µM.

Turning to `Nc1nc(Nc2ccc(OCCN3CCCC3)cc2)nn1C(=O)c1ccc(Oc2ccccc2)cc1` [compound 269, 5-amino-1-(4-(phenoxy)phenyl)carbonyl-3-[4-[2-(pyrrolidin-1-yl)ethoxy]phenylamino]-1H-1,2,4-triazole], the IC50 under setting [1] is under 1 µM. Turning to `Cc1cccc(C(=O)n2nc(Nc3ccc4[nH]ccc4c3)nc2N)c1` [compound 252, 5-amino-3-(1H-indol-5-yl)amino-1-(3-methylphenyl)carbonyl-1H-1,2,4-triazole], under setting [5], the IC50 fell in the range of 1 to 10 µM. `COc1ccc(NC(=O)n2nc(Nc3ccc(OCCN4CCCCC4)cc3)nc2N)cc1OC` [compound 43, 5-amino-N-(3,4-(dimethoxy)phenyl)-3-[4-[2-(piperidin-1-yl)ethoxy]phenylamino]-1H-1,2,4-triazole-1-carboxamide] showed a 50% inhibitory concentration (IC50) under setting [3] of 1 to 10 µM. The compound `Cc1cccc(C(=O)n2nc(Nc3cccc(OCC(=O)NC4CCCCC4)c3)nc2N)c1` [compound 165, 5-amino-3-[3-[cyclohexylaminocarbonylmethoxy]phenylamino]-1-(3-(methyl)phenyl)carbonyl-1H-1,2,4-triazole] gave an IC50 under setting [4] of over 20 µM. Same read-out and setting: the same measure for `COC(=O)COc1cccc(C(=O)n2nc(Nc3ccc4c(c3)OCCO4)nc2N)c1` [compound 138, 5-amino-3-(1,4-benzodioxan-6-yl)amino-1-[3-(methoxycarbonylmethoxy)phenyl)carbonyl-1H-1,2,4-triazole]: 1 to 10 µM. Turning to `CC(C)(C)Oc1ccc(C(=O)n2nc(NC3C4C=CC(C4)C3C(N)=O)nc2N)cc1` (stereo not drawn) [compound 346, 5-amino-1-(4-(tert-butoxy)phenyl)carbonyl-3-[(5-(aminocarbonyl)bicyclo[2.2.1]hept-2-en-6-yl)amino]-1H-1,2,4-triazole], the IC50 under setting [5] was over 20 µM. For the compound `Cc1cccc(C(=O)n2nc(N)nc2Nc2cccc(OCC(=O)NC3CCCCC3)c2)c1` [compound 164, 3-amino-5-[3-[cyclohexylaminocarbonylmethoxy]phenylamino]-1-(3-(methyl)phenyl)carbonyl-1H-1,2,4-triazole], the IC50 under setting [6] was over 20 µM. In turn, `CC(C)(C)Oc1ccc(C(=O)n2nc(Nc3ccc(OCCN4CC[C@H](F)C4)cc3)nc2N)cc1` [compound 384, 5-amino-1-(4-(tert-butoxy)phenyl)carbonyl-3-[4-[2-((S)-3-fluoropyrrolidin-1-yl)ethoxy]phenylamino]-1H-1,2,4-triazole] returned an IC50 under setting [1] of under 1 µM. As for `CC(=O)n1nc(Nc2ccc3c(c2)OCCO3)nc1N` [compound 261, 1-Acetyl-5-amino-3-(1,4-benzodioxan-6-yl)amino-1H-1,2,4-triazole], the IC50 under setting [2] was over 20 µM.
